The experiment relates to SARS-CoV-2 delta variant (hCoV-19/USA/MD-HP05647/2021). Kind of experiment: Live virus antiviral test in A549-hACE2 cells (RT-qPCR). In kind it is cell-based. Conditions: Severe acute respiratory syndrome coronavirus 2, 72 h. In general terms: Real-time PCR tracks product formation cycle by cycle.

For orientation: EC50 means the concentration needed to bring the measured effect to its halfway point. Low values mean an effect from little substance, high ones a need for much substance.

`CC1(C)[C@@H]2[C@@H](C(=O)N[C@H](C=O)C[C@@H]3CCNC3=O)N(C(=O)[C@H](CC3CCCCC3)NC(=O)OCc3ccccc3)C[C@@H]21` [MPI100]: the response was half-maximal at 3.4 µM (EC50).
